# Measured values reported in patent EP1137386B1, “USE OF TRICLOSAN AS AN AN[…]” (Jawaharlal Nehru Centre For Advanced Scientific Research, priority 1999, dated 2001).
# Columns and labels:
# [1] = test system: P. falciparum; assay: Uptake of [35S] methionine as an index of inhibition of parasite growth; type: cell-based; settings: P. falciparum in culture, different concentrations of triclosan (Fig. 5)
# Description: Uptake of [^35S] methionine, NEN, DuPont, (specific activity 1175 Ci/mmol) is used as an index of parasite growth. The final isotope concentration to be added in each well is 100 µCi/ml culture. Before an hour of total incubation period (24, 48, or 72 h) 20 µl of the isotope in culture medium is added to each well and incubated for an additional 1 hr. After incubation, contents of the well are pipetted into microcentrifuge tubes kept on ice. The samples are spun at 3000 g for 10 sec. The supernatant is discarded and the pellet washed twice in 1.0 ml of 0.9% NaCl. The pellet is lysed with 50 µl distilled water and spotted onto Whatman No. 3 discs (presoaked in 10% TCA with cold methionine and dried). After spotting, these discs are allowed to dry and then they are treated with hot TCA, cold TCA (10% throughout), alcohol ether (2:1, v/v) and finally with ether. […] The discs are air dried after ether treatment, and counted in optiphase 'Hisafe' scintillation fluid (Wallac Scintillation Products, U.K.) in a Wallac β-counter (Model 1409, Finland).
# The drug and parasites were aliquoted in required number of rows of wells in 96 well titre plates as described in example 1. […] After ether treatment, the discs were air dried, placed in scintillation fluid phase III from Wallac and counted in Wallac β-counter.
# [2] = test system: Plasmodium falciparum; assay: In vitro effect on growth of Plasmodium falciparum (parasitemia and morphology in Giemsa stained smears); type: cell-based; settings: P. falciparum cultures in human erythrocytes
# Description: Plasmodium falciparum cultures with 5-6% parasitemia are diluted with washed 50% suspension of red blood cells and CRPMI so that the initial parasitemia becomes 1% and hematocrit 2%. 1.5 millilitres of this diluted infected cell suspension is placed in flat bottom vials, which are kept in a desiccator equipped with a stopcock. A candle is lit and the cover of the desiccator is put on with the stopcock open. When the candle goes out, the stopcock is closed. This is a simple but effective way to produce an atmosphere of low O2(1-5%) and high CO2 content (7%). Fresh medium is provided daily by withdrawing the supernatant and supplementing cells with 1.25 millilitres of CRPMI. Fresh erythrocytes are added every third or fourth day when the parasitemia reaches 6-8%, bringing it down to 1%. In cultures, all stages of the asexual cycle are seen at any one time, since the cultures have lost some of the synchronicity characteristic of P. falciparum in man. Delicate rings with two chromatin dots are common. Schizonts or segmenters show 15-18 merozoites, the same numbers seen in material from human infections.
# This is done by observing the stained smear of infected red blood cells under the microscope in oil immersion. The following stages of Plasmodium falciparum with their characteristic features can be seen. These stages are as follows: • 1. […]
# [3] = test system: cell free system for the synthesis of fatty acids of Plasmodium falciparum; assay: Incorporation of [14C] malonyl-CoA in fatty acids in cell free system, scintillation counting and TLC/autoradiography; type: biochemical
# Description: For cell free fatty acid synthesis in E.Coli, See Δ P.W. Majerus et al. (1968), Methods in Enzymol, 14, 43-52.
# The pellet was washed four to five times with cold phosphate buffer saline and after washing, the pellet was suspended in 3.0 ml of phosphate buffer saline and equal volume of 0.15% saponin was added to isolate free parasites. (See specific embodiments). The late ring stage (trophozoites) of the parasites thus isolated were washed once thoroughly with PBS and the cells suspended in 0.4 ml of 1 mM potassium phosphate buffer pH 7.0 and sonicated for 15 sec. The cell lysate (2.0 mg cell extract protein) thus prepared was mixed with 200 µl of 200 mM of potassium phosphate buffer pH 7.0 containing 70 uM acetyl CoA, 8 mM glucose-6-phosphate, 3 mM each of NADH and NADPH, 0.4 mM EDTA, 4 units of glucose-6-phosphate dehydrogenase, 45 uM [^14C]malonyl-CoA (specific activity 54.2 mCi/mmol, DuPont) and 3 mM dithiothreitol (DTT). To this 200 µg of DTT reduced acyl carrier protein (ACP) from E. coli (Sigma) in 25 µl of 75 mM phosphate buffer was added. The reaction mixture was incubated for 30 min at 37°C. […] A part (25 µl) of the sample in methanol was counted by scintillation counting to determine also the extent of incorporation of [^14C] malonyl-CoA in fatty acids both in the presence and absence of Triclosan.
# [4] = test system: Plasmodium berghei; assay: Protection of mice against malaria after administration in vivo (P. berghei infected mice); parameters: species or system Swiss mice; settings: for mice survived till day 14 / mice survived till 14th day: subcutaneously in DMSO, day 1 of infection and next 6 days, P. berghei infected male swiss mice
# From the text: The present invention involves the use of triclosan for the manufacture of an antimalarial agent to inhibit the growth of the murine malaria parasite Plasmodium berghei as well. The effect of various concentration of triclosan in controlling parasitemia is monitored in Plasmodium berghei infected mice. • 1. Plasmodium berghei infection: P. berghei parasite is maintained in Swiss male mice through serial blood passage. • 2. Triclosan treatment: Swiss mice (5 animals/group) are infected on day zero with about 10^6 infected red blood cells (IRBC). The animals are kept under observation to record parasitemia and mortality. Parasitemia is determined by counting 10^3 red cells in a thin blood smear stained with Giesma and expressed as number of parasitized cells/100 erythrocytes. The animals given only dimethylsulfoxide (DMSO) are used as controls and referred to as untreated animals. Level of parasitemia is >1% on the first day of triclosan treatment. Parasitemia is monitored every 24 hrs, for 7-8 days.
# Male swiss mice were infected with P. berghei. The animals were kept under observation and parasitemia was recorded daily. Triclosan (0.8, 1.6, 3.0, 8.0, 14.0 and 28.0 mg/kg body weight of mice respectively) in DMSO was given subcutaneously on day 1 of infection when parasitemia was>1% and subsequently for the next 6 days. Experiments with triclosan were conducted with a group of five animals, each for the dosages mentioned above. DMSO was given to control animals (6) and were referred to as untreated animals. Parasitemia and mortality were recorded till the untreated mice died. Typically all the six mice in the control group died by day 9 of infection while 3, 3 and 4 mice out of 5 treated with 0.8, 1.6 and 3.0 mg triclosan/kg (body weight), survived till day 14. All the mice (5 out of 5) survived till 14th day when treated with 8.0, 14.0 and 28.0 mg triclosan/kg (body weight).
structure (smiles),measurement,setting,value
"Oc1cc(Cl)ccc1Oc1ccc(Cl)cc1Cl [triclosan, 2,4,4'-trichloro-2'-hydroxydiphenyl ether]","inhibition of protein synthesis, uptake of (^35S) methionine",[1],reduced uptake of (^35S) methionine
same,growth of the human malaria parasite in vitro,[2],inhibits the growth of the human malaria parasite in vitro in a very potent manner
same,incorporation of [^14C] malonyl CoA in fatty acids,"[3]; cell free system, 0.15, 0.225, 0.3, 0.6 and 1.2 µg of triclosan, 30 min at 37°C",inhibits incorporation of [^14C] malonyl CoA in fatty acids
same,longer chain fatty acids synthesized (elongation reaction),"[3]; cell free system, TLC with autoradiography",progressive decline in the longer chain fatty acids
same,mice survived till day 14,[4]; 0.8 mg/kg body weight,3 mice out of 5
same,mice survived till day 14,[4]; 1.6 mg/kg body weight,3 mice out of 5
same,mice survived till day 14,[4]; 3.0 mg/kg body weight,4 mice out of 5
same,mice survived till 14th day,[4]; 8.0 mg/kg body weight,5 out of 5
same,mice survived till 14th day,[4]; 14.0 mg/kg body weight,5 out of 5
same,mice survived till 14th day,[4]; 28.0 mg/kg body weight,5 out of 5
same,mortality,"[4]; P. berghei infected Swiss mice, untreated animals die by 8 days after the infection",delayed mortality is observed in treated animals depending on dose
same,parasitemia,[4]; injection in mice infected with P. berghei,able to curtail the parasitemia
